Assay results: PubChem BioAssay AID248 (DTP/NCI, 2004)
“And” between values parts separate entries of the source, which are not always exact repeats. Identical values can stand only once. Inconclusive results and toxic doses are left out.

Test system: L1210 leukemia ip in BDF1 mice, survival T/C
Assay: NCI In Vivo Anticancer Drug Screen. Data for tumor model L1210 Leukemia (intraperitoneal) in B6D2F1 (BDF1) mice
Details: endpoint: mean survival time, higher = longer survival
Outline: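 Tumor cells were implanted, animals were treated, and survival was followed. The result divides the treated measurement by the vehicle-control measurement.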

[1] = dose: 100.0 mg/kg/injection, schedule: Q01DX001 (ip), vehicle: saline
[2] = dose: 200.0 mg/kg/injection, schedule: Q01DX001 (ip), vehicle: saline
[3] = dose: 400.0 mg/kg/injection, schedule: Q01DX001 (ip), vehicle: saline
[4] = dose: 100.0 mg/kg/injection, schedule: Q01DX001 (ip), vehicle: carboxymethylcellulose (CMC)
[5] = dose: 200.0 mg/kg/injection, schedule: Q01DX001 (ip), vehicle: carboxymethylcellulose (CMC)
[6] = dose: 400.0 mg/kg/injection, schedule: Q01DX001 (ip), vehicle: carboxymethylcellulose (CMC)
[7] = dose: 100.0 mg/kg/injection, schedule: Q04DX003 (ip), vehicle: Klucel (hydroxypropylcellulose) (HPC)
[8] = dose: 200.0 mg/kg/injection, schedule: Q04DX003 (ip), vehicle: Klucel (hydroxypropylcellulose) (HPC)
[9] = dose: 400.0 mg/kg/injection, schedule: Q04DX003 (ip), vehicle: Klucel (hydroxypropylcellulose) (HPC)
[10] = dose: 100.0 mg/kg/injection, schedule: Q04DX003 (ip), vehicle: saline
[11] = dose: 200.0 mg/kg/injection, schedule: Q04DX003 (ip), vehicle: saline
[12] = dose: 400.0 mg/kg/injection, schedule: Q04DX003 (ip), vehicle: saline
[13] = dose: 100.0 mg/kg/injection, schedule: Q04DX002 (ip), vehicle: Klucel (hydroxypropylcellulose) (HPC)
[14] = dose: 200.0 mg/kg/injection, schedule: Q04DX002 (ip), vehicle: Klucel (hydroxypropylcellulose) (HPC)
[15] = dose: 400.0 mg/kg/injection, schedule: Q04DX002 (ip), vehicle: Klucel (hydroxypropylcellulose) (HPC)
[16] = dose: 100.0 mg/kg/injection, schedule: Q04DX002 (ip), vehicle: saline with Tween-80
[17] = dose: 200.0 mg/kg/injection, schedule: Q04DX002 (ip), vehicle: saline with Tween-80

## CCCCC1=CC(=O)C2CCCCC2C1=O (stereo not drawn)
dose: 100.0 mg/kg/injection, schedule: Q01DX001 (ip), vehicle: Klucel (hydroxypropylcellulose) (HPC)
  T/C: 102 % of control
dose: 200.0 mg/kg/injection, schedule: Q01DX001 (ip), vehicle: Klucel (hydroxypropylcellulose) (HPC)
  T/C: 105 % of control
dose: 400.0 mg/kg/injection, schedule: Q01DX001 (ip), vehicle: Klucel (hydroxypropylcellulose) (HPC)
  T/C: 92 % of control

## O=C(O)c1ccc(NC(c2ccccc2)c2ccc3cccnc3c2O)cc1 (stereo not drawn)
[1]
  T/C: 86 % of control
[2]
  T/C: 89 % of control
[3]
  T/C: 86 % of control

## O=NN(C(=O)NC1CCCCC1)C1CCCCC1
[4]
  T/C: 106 % of control
[5]
  T/C: 106 % of control
dose: 300.0 mg/kg/injection, schedule: Q01DX001 (ip), vehicle: carboxymethylcellulose (CMC)
  T/C: 106 % of control
[6]
  T/C: 109 % of control
dose: 500.0 mg/kg/injection, schedule: Q01DX001 (ip), vehicle: carboxymethylcellulose (CMC)
  T/C: 112 % of control

## O=[N+]([O-])c1cc(N(c2ccccc2)c2ccccc2)cc([N+](=O)[O-])c1
[4]
  T/C: 103 % of control
[5]
  T/C: 108 % of control
[6]
  T/C: 103 % of control

## CCCC(C)C1(CC)C(=O)NC(=O)NC1=O (stereo not drawn)
dose: 20.0 mg/kg/injection, schedule: Q01DX001 (ip), vehicle: saline
  T/C: 97 % of control
dose: 20.0 mg/kg/injection, schedule: Q04DX003 (ip), vehicle: saline
  T/C: 93 % of control
dose: 40.0 mg/kg/injection, schedule: Q01DX001 (ip), vehicle: saline
  T/C: 103 % of control
dose: 40.0 mg/kg/injection, schedule: Q04DX003 (ip), vehicle: saline
  T/C: 98 % of control
dose: 75.0 mg/kg/injection, schedule: Q01DX001 (ip), vehicle: saline
  T/C: 107 % of control
dose: 80.0 mg/kg/injection, schedule: Q01DX001 (ip), vehicle: saline
  T/C: 108 % of control
dose: 80.0 mg/kg/injection, schedule: Q04DX003 (ip), vehicle: saline
  T/C: 97 % of control
dose: 160.0 mg/kg/injection, schedule: Q01DX001 (ip), vehicle: saline
  T/C: 108 % of control

## CCCCc1ccc(OCCBr)cc1
dose: 100.0 mg/kg/injection, schedule: Q01DX009 (ip), vehicle: saline sonified
  T/C: 102 % of control
[7]
  T/C: 95 % of control
dose: 200.0 mg/kg/injection, schedule: Q01DX009 (ip), vehicle: saline sonified
  T/C: 98 % of control
[8]
  T/C: 103 % of control
dose: 400.0 mg/kg/injection, schedule: Q01DX009 (ip), vehicle: saline sonified
  T/C: 95 % of control
[9]
  T/C: 101 % of control

## ClC(c1ccccc1)C(Cl)c1ccccc1 (stereo not drawn)
dose: 50.0 mg/kg/injection, schedule: Q01DX001 (ip), vehicle: carboxymethylcellulose (CMC)
  T/C: 101 % of control
dose: 75.0 mg/kg/injection, schedule: Q04DX002 (ip), vehicle: Klucel (hydroxypropylcellulose) (HPC)
  T/C: 109 % of control
[4]
  T/C: 106 % of control
dose: 150.0 mg/kg/injection, schedule: Q04DX002 (ip), vehicle: Klucel (hydroxypropylcellulose) (HPC)
  T/C: 95 % of control
[5]
  T/C: 101 % of control
dose: 300.0 mg/kg/injection, schedule: Q04DX002 (ip), vehicle: Klucel (hydroxypropylcellulose) (HPC)
  T/C: 92 % of control
[6]
  T/C: 101 % of control

## O=C(O)c1[nH]c(=O)[nH]c(=O)c1CN1CCCCC1
dose: 100.0 mg/kg/injection, schedule: Q01DX Z (ip), vehicle: methylcellulose (MC)
  T/C: 93 % of control
dose: 200.0 mg/kg/injection, schedule: Q01DX Z (ip), vehicle: methylcellulose (MC)
  T/C: 93 % of control

## Cc1cccc(CO)n1
dose: 100.0 mg/kg/injection, schedule: Q01DX009 (ip), vehicle: saline
  T/C: 106 % of control
[10]
  T/C: 110 % of control
dose: 200.0 mg/kg/injection, schedule: Q01DX009 (ip), vehicle: saline
  T/C: 108 % of control
[11]
  T/C: 110 % of control
dose: 400.0 mg/kg/injection, schedule: Q01DX009 (ip), vehicle: saline
  T/C: 103 % of control
[12]
  T/C: 103 % of control

## Cc1cccc([N+](=O)[O-])c1O
[13]
  T/C: 99 % of control
[14]
  T/C: 95 % of control
[15]
  T/C: 87 % of control

## CCCOC(=O)c1ccc(NCC(C)(C)N(C)C)cc1
[10]
  T/C: 100 % of control
[11]
  T/C: 97 % of control
[12]
  T/C: 97 % of control

## CCCCNC(=O)Nc1cc(C)ccc1Cl
[13]
  T/C: 115 % of control
[14]
  T/C: 97 % of control
[15]
  T/C: 105 % of control

## O=C(/C=C(\C(=O)c1ccccc1)c1ccccc1)c1ccc(-c2ccccc2)cc1
[13]
  T/C: 97 % of control
[14]
  T/C: 101 % of control
[15]
  T/C: 93 % of control

## CN(C)C(=S)SCN1CCCCC1
dose: 100.0 mg/kg/injection, schedule: Q01DX009 (ip), vehicle: Klucel (hydroxypropylcellulose) (HPC)
  T/C: 103 % of control
[7]
  T/C: 96 % of control
dose: 200.0 mg/kg/injection, schedule: Q01DX009 (ip), vehicle: Klucel (hydroxypropylcellulose) (HPC)
  T/C: 97 % of control
[8]
  T/C: 104 % of control
[9]
  T/C: 107 % of control

## O=[N+]([O-])c1ccc(/C=N\Nc2ccccn2)s1
dose: 100.0 mg/kg/injection, schedule: Q04DX003 (ip), vehicle: saline with Tween-80
  T/C: 93 % of control
dose: 200.0 mg/kg/injection, schedule: Q04DX003 (ip), vehicle: saline with Tween-80
  T/C: 93 % of control

## CSc1nc([N+](=O)[O-])c2cnccn12
dose: 6.25 mg/kg/injection, schedule: Q01DX009 (ip), vehicle: saline with Tween-80
  T/C: 88 % of control
dose: 12.5 mg/kg/injection, schedule: Q01DX009 (ip), vehicle: saline with Tween-80
  T/C: 93 % of control
dose: 12.5 mg/kg/injection, schedule: Q04DX003 (ip), vehicle: saline with Tween-80
  T/C: 101 % of control
dose: 25.0 mg/kg/injection, schedule: Q01DX009 (ip), vehicle: saline with Tween-80
  T/C: 93 % of control
dose: 25.0 mg/kg/injection, schedule: Q04DX003 (ip), vehicle: saline with Tween-80
  T/C: 103 % of control
dose: 50.0 mg/kg/injection, schedule: Q01DX009 (ip), vehicle: saline with Tween-80
  T/C: 93 % of control

## O=C(O)c1c(Cl)[nH]c2ccccc12
dose: 50.0 mg/kg/injection, schedule: Q04DX002 (ip), vehicle: saline with Tween-80
  T/C: 101 % of control
[16]
  T/C: 97 % of control
[17]
  T/C: 89 % of control

## O=c1cc(O)cc(Cl)[nH]1
[1]
  T/C: 96 % of control
[2]
  T/C: 91 % of control
[3]
  T/C: 96 % of control

## CC(C)(C)N(Cl)C#N
[16]
  T/C: 93 % of control
[17]
  T/C: 97 % of control
dose: 400.0 mg/kg/injection, schedule: Q04DX002 (ip), vehicle: saline with Tween-80
  T/C: 97 % of control

## Cc1cc(Cl)c(Cl)cc1NC(=O)c1ccc(Cl)c(Cl)c1
dose: 100.0 mg/kg/injection, schedule: Q01DX009 (ip), vehicle: saline with Tween-80
  T/C: 94 % of control and 101 % of control
dose: 200.0 mg/kg/injection, schedule: Q01DX009 (ip), vehicle: saline with Tween-80
  T/C: 101 % of control
dose: 400.0 mg/kg/injection, schedule: Q01DX009 (ip), vehicle: saline with Tween-80
  T/C: 102 % of control and 104 % of control

## N#CCc1cc2c(cc1[N+](=O)[O-])OCO2
[1]
  T/C: 97 % of control
[2]
  T/C: 87 % of control
[3]
  T/C: 97 % of control

## O=C(Nc1ccc(C2=NCCN2)cc1)Nc1cc(C(=O)Nc2ccc(C3=NCCN3)cc2)ccc1C(=O)Nc1ccc(C2=NCCN2)cc1
dose: 7.5 mg/kg/injection, schedule: Q01DX Z (oral), vehicle: saline
  T/C: 107 % of control
dose: 15.0 mg/kg/injection, schedule: Q01DX Z (ip), vehicle: saline
  T/C: 241 % of control
dose: 15.0 mg/kg/injection, schedule: Q01DX Z (oral), vehicle: saline
  T/C: 105 % of control
dose: 30.0 mg/kg/injection, schedule: Q01DX Z (oral), vehicle: saline
  T/C: 103 % of control
dose: 60.0 mg/kg/injection, schedule: Q01DX Z (oral), vehicle: saline
  T/C: 102 % of control
dose: 62.5 mg/kg/injection, schedule: Q01DX010 (oral), vehicle: saline
  T/C: 95 % of control
dose: 75.0 mg/kg/injection, schedule: Q01DX Z (oral), vehicle: saline
  T/C: 95 % of control
dose: 125.0 mg/kg/injection, schedule: Q01DX010 (oral), vehicle: saline
  T/C: 110 % of control
dose: 250.0 mg/kg/injection, schedule: Q01DX010 (oral), vehicle: saline
  T/C: 108 % of control
dose: 500.0 mg/kg/injection, schedule: Q01DX010 (oral), vehicle: saline
  T/C: 97 % of control
